These results are taken from patent US7736899B1, “Cells and method for producing proteins comprising an unconventional amino acid” (priority 1998, dated 2010).

Common to all, as to format: cell-based, E. coli
The subject of experiment [1] is strain β5455 (valS T222P). Kind of experiment: Zone of growth inhibition on Petri dishes, sensitivity to noncanonical amino acids. Conditions: 24 h at 30° C. As for the experimental part: (§1) The strains β5455, β8144 and β8146 are tested for their sensitivity to artificial amino acids which show steric resemblance to valine. The test is carried out on dishes containing glucose of MS mineral medium supplemented with thymidine. The cells are cultured in aerobic medium (glucose MS mineral medium, 0.3 mM thymidine) for 24 h at 30° C. and diluted to 1/250 in MS mineral medium. 0.5 ml of this cell suspension is plated out onto Petri dishes containing 25 ml of glucose MS mineral medium. A well is then hollowed out at the center of the dish and filled with 0.1 ml of an amino acid solution:
(§2) The dishes are then incubated for 24 h at 30° C. and the possible appearance on the dishes of a zone of inhibition around the well is recorded. The diameters of the limited zones of growth inhibition on Petri dishes are measured: […]

The test system of experiment [2] is strain β8144 (mutated valS). Described as above. The note with it: 24 h at 30° C. The protocol: as §1, §2
Experiment [3] relates to strain β8146 (mutated valS). The experiment is described as above. Conditions: 24 h at 30° C. The protocol:
as §1, §2

In experiment [4] the test system is strain β5366 (wild-type valS allele). Described as above. Conditions: 24 h at 30° C.; for effect on growth (zone of inhibition): central well with 0.1 ml of 100 mM amino acid solution.
Experiment [5] concerns strain β5366 (thyA:Val146). Kind of experiment: Growth on cysteine diffusion gradient in Petri dishes. From the text:
(§3) The plasmid pTS1 thus obtained propagates the thyA:Val146 allele, in which position 146 occupied in the wild-type thyA gene by the UGC codon of cysteine is occupied by the GUA codon of valine. The plasmid pTS1 is introduced by transformation, carried out according to the method of Sambrook et al. (1989), into the E. coli K12 ΔthyA strain, β1308 (Lemeignan et al., 1993), in which the chromosomal thymidylate synthase gene, thyA, is deleted. The transformed strain carrying the thyA:Val146 plasmid allele, β5366, is shown to be incapable of growing without thymine or thymidine being added to the culture medium, as is the strain β1308 from which it derives. […] Thus, it is as though the cysteine can infiltrate into the valyl-tRNA synthetase active site to form erroneous Cys-tRNAs^Val capable of correcting the substitution of the cysteine in the thymidylate synthase active site, with valine. The excess of valine would prevent the formation of these erroneous Cys-tRNAs^Val.

The subject of experiment [6] is strain β5274 (thyA:Ile146). In words: Phenotypic suppression by cysteine of thyA:Ile146 strain. Conditions: 0.1 mM. As for the experimental part:
The plasmid pTS2 thus obtained propagates the thyA:Ile146 allele in which position 146 occupied in the wild-type thyA gene by the UGC codon of cysteine is occupied by the AUA codon of isoleucine. The strain which propagates the thyA:Ile146 plasmid allele, β5274, is shown to require the nutritional supply of thymine, of thymidine or of cysteine in excess, as was the strain β5366. The phenotypic suppression of the strain β5274 by the cysteine is abolished with 0.1 mM of isoleucine, as was that of the strain β5366 with valine. Thus, it is as though the isoleucyl-tRNA synthetase is capable of forming erroneous Cys-tRNAs^Ile in the presence of an excess of cysteine, and that this erroneous formation is prevented by the presence of an excess of isoleucine.

For the next experiment, the system named is modified strain β8144. Kind of experiment: Phenotypic suppression by metabolic precursors of cysteine (growth factor replacement). From the text:
(§4) The nutrient requirement for cysteine of the modified strains β8144 and β8146 is exploited in order to characterize metabolic precursors which may substitute for cysteine in the culture medium without giving rise to degradation by oxidation. […] However, the addition of none of these substances allows growth of the strain β1308 carrying a chromosomal deletion of the thyA gene of thymidylate synthase, thus excluding their contamination with traces of thymine or of thymidine.

A further experiment has as its system modified strain β8146. Described as above.
From the text: as §4

Another experiment relates to strain β1308 (ΔthyA). Kind of experiment: Growth on cysteine diffusion gradient in Petri dishes. Conditions: 30° C., glucose MS mineral medium, central well 0.1 ml of 400 mM L-cysteine.
From the text: as §3

Experiment [7] has as its system twelve clones derived from strain β5366. Kind of experiment: Growth factor test of clones from serial culture on plates with nutrient factors. Conditions: glucose MS mineral medium plates. As for the experimental part:
The strain β5366 carrying the thyA:Val146 missense allele on the plasmid pTS1 is cultured in glucose MS mineral medium (2 g/l, Richaud et al., 1993) supplemented with 0.3 mM of thymidine, for 24 h at 30° C. in aerobiosis. The cells are then washed twice with deoxygenated MS mineral medium. A deoxygenated nutrient medium containing 10 ml of glucose MS mineral medium supplemented with 1.5 mM of cysteine is inoculated at 1/100 using the washed cells. The cells are then cultured in anaerobiosis for 24 h at 30° C., and a fresh tube containing 10 ml of deoxygenated cysteine glucose MS mineral medium is inoculated with a 1/100 dilution of the previous culture in the stationary phase. This procedure is repeated 26 times. At the end of this serial propagation, 12 clones from the liquid culture are isolated on plates containing thymidine (0.3 mM) glucose (2 g/l) MS mineral medium, in aerobiosis, and stored in suspension in the same liquid medium at −80° C. The twelve clones are tested on plates containing glucose MS mineral medium supplemented with nutrient factors. All these clones are shown to require thymine or thymidine as a growth factor, unless cysteine is present in the culture medium, at a concentration of at least 1.5 mM.

The mark [8] stands for this setting: central well with 0.1 ml of 100 mM amino acid solution.
The mark [9] stands for this setting: central well with 0.1 ml of 50 mM amino acid solution.

Turning to L-2-aminobutyrate, the “diameter of zone of growth inhibition” value in experiment [1] (setting [8]) amounted to 5.2 cm; in experiment [2] (setting [8]), 5.7 cm; in experiment [3] (setting [8]), 6.7 cm. Besides, the “effect on growth (zone of inhibition)” value in experiment [4] is on record as “no effect”.
For `CC(C)[C@H](N)C(=O)O` [valine], the “effect on growth on a cysteine gradient” value in experiment [5] (0.1 mM added to the medium of the Petri dishes) is “abolishes the growth”.
Turning to `CC[C@H](C)[C@H](N)C(=O)O` [isoleucine], in experiment [6], the “effect on phenotypic suppression by cysteine” value is listed as “abolished”.
As to `CSC[C@H](N)C(=O)O` [S-methyl-L-cysteine], the “replacement of cysteine as growth factor instead of thymidine or thymine” value (“replacement of cysteine” for short) with modified strain β8144 (3 mM in culture medium) and in the experiment with modified strain β8146 (3 mM in culture medium) was “capable of replacing cysteine as a growth factor” each time.
As to `NC(=O)SC[C@H](N)C(=O)O` [S-carbamyl-L-cysteine], the “replacement of cysteine” value in the experiment with modified strain β8144 (3 mM in culture medium) and in the experiment with modified strain β8146 (3 mM in culture medium) was “capable of replacing cysteine as a growth factor” each time.
For `N[C@@H](CS)C(=O)O` [L-cysteine], the “growth on cysteine diffusion gradient” value is listed as “no detectable growth” in the experiment on strain β1308 (ΔthyA) and “marginal growth” in [5] (30° C., glucose MS mineral medium, central well 0.1 ml of 400 mM L-cysteine). The “cysteine concentration that replaces thymine or thymidine as growth factor” value in experiment [7] is reported as “at least 1.5 mM”.
With `O=C(O)[C@@H]1CSCN1` [L-thiazolidine-4-carboxylic acid], the “replacement of cysteine” value with modified strain β8144 (2 mM in culture medium) and in the experiment with modified strain β8146 (2 mM in culture medium) was “capable of replacing cysteine as a growth factor” each time.
In the case of `CCC[C@H](N)C(=O)O` [L-2-aminovalerate], the “diameter of zone of growth inhibition” value came out at 2.1 cm in experiment [1] (setting [8]), 1.5 cm in experiment [2] (setting [8]) and 6.7 cm in experiment [3] (setting [8]). In addition, the “effect on growth (zone of inhibition)” value in experiment [4] is “no effect”.
For the compound `NC[C@H](N)C(=O)O` [L-2,3-diaminopropionate], the figures for the “diameter of zone of growth inhibition” value in experiment [1] (setting [8]), in [2] (setting [8]) and in [3] (setting [8]) were 2.3 cm, 2.7 cm and 1.9 cm, respectively. The “effect on growth (zone of inhibition)” value in experiment [4] is recorded as “no effect”.
Turning to `CC(S)[C@H](N)C(=O)O` (stereo partly drawn) [L-3-thiol-2-aminobutyrate], the “diameter of zone of growth inhibition” value in experiment [1] (setting [9]) is listed as 4.6 cm; in experiment [2] (setting [9]) it was 4.0 cm; in experiment [3] (setting [9]), 4.0 cm; in experiment [4] (setting [9]), 2.0 cm.
